Read-outs that look alike come from different tables or passages of the source.

Broadly, the Kd is the equilibrium constant for the complex coming apart. Higher therefore signals weaker binding. As usually defined, the EC50 is the concentration at which the effect is half-maximal. A lower EC50 goes with a more potent agent. By Emax is commonly meant the greatest response seen or fitted, relative to the assay's reference.

A short description of data set [1]: Human liver microsomal stability. Format: in vitro ADME. Particulars: 37.5 °C, LM conc 0.4 mg/mL; for half-life: read-out: T1/2,int. On the procedure:
The oral bioavailability of compounds in terms of Caco-2 and MDCK-II permeability and the P-glycoprotein (P-gp) efflux ratio were assessed. The in vitro intrinsic half-life (T1/2,int) and the apparent intrinsic clearance (CLint,app) of compounds were also measured after incubation with human liver microsomes at 37.5 °C[65]. […] Quantification was done by LC-MS/MS. P-gp substrate activity was assessed by the efflux ratio (the ratio of Papp in the B-to-A direction over that in the A-to-B direction). […] P-gp is an ATP-dependent transporter on the apical plasma membrane of enterocytes that functions to limit the entry of drugs into the cell.
Highly cleared compounds in vitro are likely to be rapidly cleared in vivo resulting in a short duration of action.
A general note: Liver microsomes are vesicles of endoplasmic reticulum, rich in cytochrome P450 enzymes.

Data set [2] deals with STZ-NA-induced diabetic rats. In words: Antidiabetic activity in STZ-NA-induced type 2 diabetic rats. The following applies: for HbA1c / blood glucose levels / HDL-C / Hb levels / TC, TG, VLDL-C and LDL-C: 15 days; for blood glucose levels: vs diabetic control rats; for HDL-C / Hb levels / TC, TG, VLDL-C and LDL-C: vs disease control (STZ + NA). On the procedure:
The test dose was fixed based on the predicted LD50 value. […] Diabetic rats were orally treated with the test compounds at a dose of 36 mg/kg body weight for a period of 15 days. Fasting blood glucose of control, diabetic-untreated and diabetic-treated rats were tested on Days 1, 3, 7 and 15 of the treatment period (Fig. 6A).
Male Wistar strain rats weighing about 160–200 g were used for animal studies. […] Rats were provided with rodent diet and water ad libitum. […] The animals were allowed to drink 5% glucose solution overnight to prevent STZ-NA-induced hypoglycemia[82],[83]. The rats were considered as diabetic if their blood glucose levels were above 250 mg/dL on the 3rd day after STZ-NA injection. The rats were divided into four groups of six animals in each group. Control animals received normal saline (Group I). Diabetic rats received STZ-NA injection (Group II). […] The blood glucose level of each group was checked at 1, 3, 7 and 15 Day by withdrawing blood from tail vein of the animal using glucose meter (ACCu-Chek active, Roche, Diagnostics USA).
After pharmacological screening for antidiabetic activity, the animals were subjected to overnight fasting and blood was collected from retro-orbital region under light anaesthesia for performing various biochemical experiments. All the biochemical experiments were performed using commercially available kits. Total Hb was estimated by cyanomethaemoglobin method, while HbA1c was estimated from whole blood using commercially available kits following the manufacturer guidelines (ERBA Diagnostics Inc, Accurex Biomedical Pvt. Ltd., Coral clinical systems, India). TG concentration was determined by GPO-POD enzymatic-colorimetric method. TC level was measured by the end point, CHOD-POD colorimetric methods. HDL-C was assayed by the method reported earlier. VLDL-C and LDL-C in plasma were calculated by the Friedewald formula: VLDL-C = TG/5; LDL-C = TC-(HDL-C + VLDL-C)[88]. Levels of serum urea, uric acid, and creatinine were measured using commercially available kits[89].
Rats were sacrificed under light anesthesia using diethylether at the end of the pharmacological and biochemical studies. […] Then, the tissue was sliced out into sections of 5 µm thickness by a rotator microtome and stained with hematoxylin-eosin. Obtained sections were examined by a Leica DME microscope, and representative photomicrographs were taken by a 7.1 megapixel Canon Power Shot S70 digital camera.

Data set [3] deals with T1, PPARγ (Homo sapiens, UniProt P37231).
T1 sequence (P37231 1-505): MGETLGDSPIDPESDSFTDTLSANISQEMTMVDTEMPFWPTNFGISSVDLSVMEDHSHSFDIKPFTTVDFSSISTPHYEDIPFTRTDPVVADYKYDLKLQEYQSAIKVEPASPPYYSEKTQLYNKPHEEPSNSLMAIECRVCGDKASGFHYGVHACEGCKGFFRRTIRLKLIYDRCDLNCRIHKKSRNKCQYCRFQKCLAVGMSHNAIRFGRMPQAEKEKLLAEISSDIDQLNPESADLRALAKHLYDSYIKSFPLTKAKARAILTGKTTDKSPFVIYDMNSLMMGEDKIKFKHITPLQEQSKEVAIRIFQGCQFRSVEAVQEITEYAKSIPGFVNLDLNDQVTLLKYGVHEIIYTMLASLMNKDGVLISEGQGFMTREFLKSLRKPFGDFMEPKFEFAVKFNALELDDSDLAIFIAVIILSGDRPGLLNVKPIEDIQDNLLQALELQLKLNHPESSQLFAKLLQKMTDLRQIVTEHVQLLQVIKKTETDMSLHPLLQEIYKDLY
Kind of data set: SPR-based Biacore binding assay on immobilized PPARγ. Particulars: injected 0.5 to 10 µM. As for the experimental part: […]. SPR analyses were carried out on a BIACORE 3000 instrument (GE-Healthcare). A PPARγ, surface was generated using a research-grade CM5 sensor chips (GE Healthcare). The protein (100 µg/ml in 10 mM CH3COONa, pH 5.0) was immobilized using a standard amine-coupling protocol, to obtain densities of 4 kRU. Testing compounds were dissolved in 100% DMSO to obtain 10 mM solutions, and then diluted in PBS containing variable amounts of DMSO, achieving a final DMSO concentration of 0.1%. For each molecule a five-point concentration series (0.5 µM, 1 µM, 2,5 µM, 5 µM and 10 µM) was set up. SPR experiments and data elaboration were carried out as reported elsewhere.
A general note: Surface plasmon resonance follows binding to a sensor surface in real time, without labels.

Data set [4] has as its target T2, human PPARγ (hPPARγ) (Homo sapiens, UniProt P37231).
T2 construct: expressed in transfected cells; host or cells: HepG2 (human hepatoblastoma), transient calcium phosphate transfection
T2 sequence (P37231 238-503 limits assumed): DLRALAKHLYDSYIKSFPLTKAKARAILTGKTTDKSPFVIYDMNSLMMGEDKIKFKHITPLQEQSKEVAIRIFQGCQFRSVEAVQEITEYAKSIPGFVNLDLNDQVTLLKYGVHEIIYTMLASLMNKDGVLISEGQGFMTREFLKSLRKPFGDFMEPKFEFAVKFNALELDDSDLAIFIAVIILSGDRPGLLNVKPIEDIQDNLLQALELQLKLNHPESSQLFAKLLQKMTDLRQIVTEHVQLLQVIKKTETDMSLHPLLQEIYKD
In words: GAL-4 PPAR chimeric receptor transactivation assay in transiently transfected HepG2 cells. Particulars: for EC50: Gal4-hPPARγ-LBD, HepG2 cells, concentration-response curve; for Emax: maximum induction of Rosiglitazone defined as 100%; for agonist activity on hPPARα, hPPARγ, hPPARβ/δ subtypes: tested at 5 μM and 25 μM, compared with reference agonists. The data set is classed as cell-based.

Setting [5] is: 36 mg/kg, light microscopy, hematoxylin-eosin.

In the case of `CCN(CC)C(=O)CN1C(=O)S/C(=C\c2ccccc2)C1=O` [1i], the half-life in data set [1] (human liver microsomes) was found to be 92.5 min. Besides, in data set [2] (36 mg/kg oral), the HbA1c result is reported as “significantly prevented the increase”, the blood glucose levels entry is given as “significantly reduced”, the HDL-C result was “increase” and the Hb levels entry is “significant increase”. Further, in data set [2] (36 mg/kg oral), the “TC, TG, VLDL-C and LDL-C” value is “significant decrease”. Moreover, the “histological changes of pancreas (islets, β-cells)” value (“histological changes of pancreas” for short) in data set [2] (setting [5]) is given as “restored to near normal”. Binding in data set [3] was characterised by a dissociation constant (Kd) of 35.7 ± 2.6 µM. Moreover, in data set [4], a half-maximal effect (EC50) was put at 9.6 ± 0.8 µM and the “agonist activity on hPPARα, hPPARγ, hPPARβ/δ subtypes” value (“agonist activity … hPPARβ/δ subtypes” for short) is “weak to moderate selective activity towards PPARγ”. In addition, the Emax in data set [4] (HepG2, read-out: Emax) is 23 ± 5%.

Take `CCCCNC(=O)CN1C(=O)S/C(=C\c2ccc(Cl)cc2)C1=O` [3a]: in data set [1] (human liver microsomes), the half-life was 53.3 min. The microsomal CLint in data set [1] (human, liver microsomes, read-out: CLint,app) came out at 32.5 µL/min/mg. In addition, in data set [2] (36 mg/kg oral), the HbA1c result is “significantly prevented the increase”, the blood glucose levels result is “significantly reduced”, the HDL-C entry is reported as “increase” and the Hb levels entry was “significant increase”. The “TC, TG, VLDL-C and LDL-C” value in data set [2] (36 mg/kg oral) is on record as “significant decrease”. Besides, the “blood glucose lowering activity compared with standard” value in data set [2] (36 mg/kg oral, data for 15th Day) is listed as “equivalent to the standard drug Pioglitazone”. In data set [2] (setting [5]), the “histological changes of pancreas” value is reported as “restored to near normal”. The Kd in data set [3] turned out to be 32 ± 1.5 µM. In data set [4], the midpoint of the response, the EC50, lay at 5.9 ± 0.6 µM and the “agonist activity … hPPARβ/δ subtypes” value is reported as “selective activity towards PPARγ”. Besides, in data set [4] (HepG2, read-out: Emax), the Emax is 31.6 ± 1%.

Take `CCCCNC(=O)CN1C(=O)S/C(=C\c2ccccc2)C1=O` [1a]: in data set [1] (human liver microsomes), the “CLint,app” value is 169.81 µL/min/mg and the “T1/2,int” value came out at 10.20 min. Moreover, in data set [2] (36 mg/kg oral), the HbA1c entry is on record as “significantly prevented the increase”, the blood glucose levels result is given as “significantly reduced”, the HDL-C entry is recorded as “increase” and the Hb levels result is on record as “significant increase”. Further, the “TC, TG, VLDL-C and LDL-C” value in data set [2] (36 mg/kg oral) is given as “significant decrease”. In data set [2] (setting [5]), the “histological changes of pancreas” value is “restored to near normal” and the liver histopathology result is recorded as “no hepatic abnormalities”. Moreover, in data set [3], the affinity, expressed as Kd, was 38.3 ± 1.8 µM. In data set [4], the EC50 is 7 ± 1.3 µM; the Emax is given as 5.3 ± 0.3%; the “agonist activity … hPPARβ/δ subtypes” value is “weak to moderate selective activity towards PPARγ”.

For the origin of these results see publication PMC5663708, “Novel Benzylidene Thiazolidinedione Derivatives as Partial PPARγ Agonists and their Antidiabetic Effects on Type 2 Diabetes” (Scientific Reports, 2017).
